# Paper PMC9138505, “Small Molecule 20S Proteasome Enhancer Regulates MYC Protein Stability and Exhibits Antitumor Activity in Multiple Myeloma” (Biomedicines, 2022)
# Values joined by “and” are separate entries in the source; they are usually repeats but may differ in a detail not shown here. Equal entries are not always repeated.
# System: RPMI-8226 cells
# Test: Gene expression profiling, NanoString nCounter PanCancer Pathways Panel, ROSALIND analysis
# Type: cell-based, human
# Conditions: RPMI-8226, TCH-165 samples 1-3
# Description: RPMI-8226 cells were treated with vehicle or TCH-165 (10 μM) for 4 h. Total RNA was obtained using the mirVana miRNA Isolation Kit, with phenol (Thermofisher Scientific; AM1560; Waltham, MA, USA). Total RNA was quantified by Qubit (Thermofisher Scientific; Q32855; Waltham, MA, USA). and gene expression was evaluated against the nCounter® PanCancer Pathways Panel^TM according to the standard NanoString protocol.
# Data were analyzed by ROSALIND® [36] with a hyperscale architecture developed by ROSALIND, Inc. (San Diego, CA, USA). Normalization, fold changes and p-values were calculated using criteria provided by NanoString. ROSALIND follows the nCounter® Advanced Analysis protocol of dividing counts within a lane by the geometric mean of the normalizer probes from the same lane. Housekeeping probes to be used for normalization are selected based on the geNorm algorithm, as implemented in the NormqPCR R library. Fold changes and p-values are calculated using the fast method as described in the nCounter Advanced Analysis 2.0 User Manual. The p-value adjustment is performed using the Benjamini–Hochberg method of estimating false discovery rates (FDR). Clustering of genes for the final heatmap of differentially expressed genes was done using the PAM (Partitioning Around Medoids) method using the fpc R library. Hypergeometric distribution was used to analyze the enrichment of pathways, gene ontology, domain structure and other ontologies. The topGO R library was used to determine local similarities and dependencies between GO terms in order to perform Elim pruning correction. Several database sources were referenced for enrichment analysis, including Interpro [40], NCBI [41], MSigDB [42, 43], REACTOME [44], WikiPathways. Enrichment was calculated relative to a set of background genes relevant to the experiment.
compound,measurement,value
CCOC(=O)[C@]1(c2ccccc2)N=C(c2ccc(OC)cc2)N(Cc2ccccc2)[C@@H]1c1ccc(NCc2ccccc2)cc1 [TCH-165],ABL1 normalized gene expression,8.417 and 8.4055 and 8.194
same,ACVR1B normalized gene expression,5.827 and 5.592 and 5.805
same,ACVR2A normalized gene expression,6.629 and 6.427 and 6.2646
same,AKT1 normalized gene expression,9.563 and 9.727 and 9.565
same,AKT2 normalized gene expression,9.573 and 9.603 and 9.59
same,AKT3 normalized gene expression,5.86 and 5.739 and 5.506
same,ALK normalized gene expression,5.044 and 4.427 and 3.805
same,AMH normalized gene expression,4.488 and 4.27 and 3.291
same,ANGPT1 normalized gene expression,7.445 and 7.284 and 7.245
same,APC normalized gene expression,7.784 and 7.6193 and 7.522
same,AR normalized gene expression,4.723 and 4.093 and 4.653
same,ARID1A normalized gene expression,9.641 and 9.688 and 9.749
same,ARNT2 normalized gene expression,5.61 and 5.297 and 5.0068
same,ATM normalized gene expression,8.202 and 8.069 and 8.0531
same,ATR normalized gene expression,9.3284 and 9.349 and 9.258
same,ATRX normalized gene expression,10.3284 and 10.1666 and 10.2009
same,AXIN1 normalized gene expression,8.978 and 8.914 and 8.769
same,AXIN2 normalized gene expression,4.308 and 4.3768 and 4.39
same,B2M normalized gene expression,16.2154 and 16.1625 and 16.1882
same,BAD normalized gene expression,9.483 and 9.357 and 9.442
same,BAIAP3 normalized gene expression,6.488 and 5.962 and 5.926
same,BAMBI normalized gene expression,6.259 and 6.476 and 6.341
same,BAP1 normalized gene expression,8.78 and 8.732 and 8.643
same,BAX normalized gene expression,9.129 and 9.1412 and 9.225
same,BCL2A1 normalized gene expression,5.758 and 5.547 and 5.712
same,BCL2L1 normalized gene expression,10.1011 and 10.0891 and 10.0785
same,BCL2 normalized gene expression,9.695 and 9.7506 and 9.653
same,BCOR normalized gene expression,9.105 and 9.1915 and 9.017
same,BDNF normalized gene expression,5.044 and 4.739 and 5.0068
same,BID normalized gene expression,7.087 and 7.045 and 6.9095
same,BIRC3 normalized gene expression,5.924 and 5.759 and 5.5707
same,BMP2 normalized gene expression,5.259 and 4.7789 and 5.156
same,BMP4 normalized gene expression,3.86 and 2.891 and 3.0682
same,BMP5 normalized gene expression,5.758 and 5.124 and 4.653
same,BMP6 normalized gene expression,7.818 and 7.896 and 7.955
same,BMP7 normalized gene expression,8.639 and 8.544 and 8.563
same,BMPR1B normalized gene expression,5.53 and 5.476 and 5.592
same,BNIP3 normalized gene expression,9.175 and 9.079 and 9.173
same,BRAF normalized gene expression,8.142 and 7.966 and 8.109
same,BRCA1 normalized gene expression,10.3606 and 10.2785 and 10.3058
same,BRCA2 normalized gene expression,8.271 and 8.2205 and 8.187
same,CACNA1C normalized gene expression,4.649 and 4.029 and 4.291
same,CACNA1D normalized gene expression,7.445 and 7.37 and 7.163
same,CACNA1E normalized gene expression,5.723 and 5.124 and 4.876
same,CACNA1G normalized gene expression,4.649 and 4.093 and 4.483
same,CACNA1H normalized gene expression,5.259 and 4.3768 and 4.483
same,CACNA2D1 normalized gene expression,4.986 and 5.0613 and 5.2646
same,CACNB2 normalized gene expression,4.986 and 4.739 and 4.975
same,CACNB3 normalized gene expression,5.308 and 5.154 and 5.592
same,CACNB4 normalized gene expression,5.208 and 4.996 and 4.841
same,CACNG1 normalized gene expression,4.793 and 4.093 and 4.1271
same,CACNG4 normalized gene expression,6.629 and 6.927 and 6.75
same,CALML3 normalized gene expression,4.986 and 4.476 and 4.528
same,CALML5 normalized gene expression,4.924 and 3.739 and 3.291
same,CAMK2B normalized gene expression,5.156 and 4.029 and 4.1271
same,CAPN2 normalized gene expression,4.488 and 4.7789 and 4.653
same,CASP3 normalized gene expression,9.077 and 9.095 and 9.024
same,CASP7 normalized gene expression,7.9 and 7.832 and 7.858
same,CASP8 normalized gene expression,10.5065 and 10.4134 and 10.4228
same,CASP9 normalized gene expression,7.015 and 7.5638 and 7.592
same,CASP10 normalized gene expression,6.044 and 5.524 and 5.316
same,CBL normalized gene expression,6.94 and 6.657 and 6.805
same,CBLC normalized gene expression,2.723 and 1.891 and 3.0682
same,CCNA1 normalized gene expression,5.355 and 4.996 and 4.769
same,CCNA2 normalized gene expression,11.2764 and 11.2603 and 11.2666
same,CCNB1 normalized gene expression,12.2985 and 12.3229 and 12.3132
same,CCND1 normalized gene expression,7.343 and 7.069 and 7.218
same,CCND2 normalized gene expression,11.5762 and 11.5571 and 11.5967
same,CCND3 normalized gene expression,7.732 and 7.547 and 7.5547
same,CCNE1 normalized gene expression,7.001 and 7.297 and 7.31
same,CCNE2 normalized gene expression,8.015 and 7.524 and 7.638
same,CCNO normalized gene expression,5.156 and 4.093 and 4.0682
same,CCR7 normalized gene expression,3.723 and 3.817 and 3.483
same,CD14 normalized gene expression,5.53 and 5.402 and 5.437
same,CD19 normalized gene expression,4.571 and 4.476 and 4.184
same,CD40 normalized gene expression,6.86 and 6.729 and 6.901
same,CDC6 normalized gene expression,11.1861 and 11.1846 and 11.1724
same,CDC7 normalized gene expression,7.884 and 7.9093 and 7.845
same,CDC14A normalized gene expression,6.308 and 6.012 and 6.038
same,CDC14B normalized gene expression,5.86 and 5.891 and 6.0224
same,CDC25A normalized gene expression,8.686 and 8.482 and 8.39
same,CDC25B normalized gene expression,9.593 and 9.697 and 9.611
same,CDC25C normalized gene expression,8.406 and 8.5 and 8.492
same,CDH1 normalized gene expression,5.355 and 5.891 and 5.673
same,CDK2 normalized gene expression,8.944 and 8.829 and 8.792
same,CDK4 normalized gene expression,10.4105 and 10.495 and 10.3803
same,CDK6 normalized gene expression,9.974 and 9.747 and 9.87
same,CDKN1A normalized gene expression,7.714 and 7.882 and 7.792
same,CDKN1B normalized gene expression,7.835 and 7.891 and 7.722
same,CDKN1C normalized gene expression,7.81 and 7.789 and 7.581
